Like-named read-outs stand apart in the source and are kept apart here.
Tested on: Angiotensin II (AII) vasopressor response
Test: AII Challenge: antagonism of angiotensin II vasopressor response in conscious spontaneously hypertensive rats
Assay type: in vivo, rat (male okamoto-Aoki SHR)
Details: for inhibition in vivo at 1 mg/kg / inhibition in vivo at 3 mg/kg / inhibition in vivo at 5 mg/kg: Rattus norvegicus; for inhibition in vivo at 1 mg/kg / inhibition in vivo at 3 mg/kg: iv; for inhibition in vivo at 3 mg/kg / inhibition in vivo at 5 mg/kg: read-out: Inhibition; for inhibition in vivo at 5 mg/kg: po; for Change: single SHR
Excerpt: Conscious Male okamoto-Aoki SHR, 16-20 weeks old, weighing approximately 330 g are purchased from Charles River Labs (Wilmington, Mass.). Conscious rats are restrained in a supine position with elastic tape. The area at the base of the tail is locally anesthetized by subcutaneous infiltration with 2% procaine. […] The cannula is secured, heparinized (1,000 I.U./ml), sealed and the wound is closed. The animals are placed in plastic restraining cages in an upright position. The cannula is attached to a Statham P23Db pressure transducer, and pulsatile blood pressure is recorded to 10-15 minutes with a Gould Brush recorder. […] Angiotensin II (human sequence, Sigma Chem. Co., St. Louis, Mo.) of 0.05 and 0.1 ug/kg i.v. is injected into all rats (predosing response). Then a test compound, vehicle or a known angiotensin II antagonist is administered i.v., i.p. or orally to each set of rats. […] The vasopressor response of angiotensin II is measured for the increase in systolic blood pressure in mmHg.

CCCCc1nc2ccc([C@H]3[C@@H]4C(=O)CC[C@@H]4ON3C)cc2c(=O)n1Cc1ccc(-c2ccccc2-c2nnn[nH]2)cc1 (relative stereo) [Example 48]
inhibition in vivo at 1 mg/kg (0.5 h, SHR n=2, 1 mg/kg I.V., AII 0.05 mcg/kg IV, 30 min post dose): 66%
inhibition in vivo at 1 mg/kg (0.5 h, SHR n=2, 1 mg/kg I.V., AII 0.1 mcg/kg IV, 30 min post dose): 52%
inhibition in vivo at 3 mg/kg (0.5 h, SHR n=2, 3 mg/kg I.V., AII 0.05 mcg/kg IV, 30 min post dose): 93%
inhibition in vivo at 3 mg/kg (0.5 h, SHR n=2, 3 mg/kg I.V., AII 0.1 mcg/kg IV, 30 min post dose): 94%
inhibition in vivo at 1 mg/kg (1 h, SHR n=2, 1 mg/kg I.V., AII 0.05 mcg/kg IV, 60 min post dose): 55%
inhibition in vivo at 1 mg/kg (1 h, SHR n=2, 1 mg/kg I.V., AII 0.1 mcg/kg IV, 60 min post dose): 71%
inhibition in vivo at 3 mg/kg (1 h, SHR n=2, 3 mg/kg I.V., AII 0.05 mcg/kg IV, 60 min post dose): 100%
inhibition in vivo at 3 mg/kg (1 h, SHR n=2, 3 mg/kg I.V., AII 0.1 mcg/kg IV, 60 min post dose): 86%
inhibition in vivo at 1 mg/kg (2 h, SHR n=2, 1 mg/kg I.V., AII 0.05 mcg/kg IV, 120 min post dose): 49%
inhibition in vivo at 1 mg/kg (2 h, SHR n=2, 1 mg/kg I.V., AII 0.1 mcg/kg IV, 120 min post dose): 31%
inhibition in vivo at 3 mg/kg (2 h, SHR n=2, 3 mg/kg I.V., AII 0.05 mcg/kg IV, 120 min post dose): 89%
inhibition in vivo at 3 mg/kg (2 h): 82%
inhibition in vivo at 1 mg/kg (3 h, SHR n=2, 1 mg/kg I.V., AII 0.05 mcg/kg IV, 180 min post dose): 38%
inhibition in vivo at 1 mg/kg (3 h, SHR n=2, 1 mg/kg I.V., AII 0.1 mcg/kg IV, 180 min post dose): 38%
inhibition in vivo at 3 mg/kg (3 h, SHR n=2, 3 mg/kg I.V., AII 0.05 mcg/kg IV, 180 min post dose): 60%
inhibition in vivo at 3 mg/kg (3 h, SHR n=2, 3 mg/kg I.V., AII 0.1 mcg/kg IV, 180 min post dose): 47%
inhibition in vivo at 1 mg/kg (4 h, SHR n=2, 1 mg/kg I.V., AII 0.05 mcg/kg IV, 240 min post dose): 26%
inhibition in vivo at 1 mg/kg (4 h, SHR n=2, 1 mg/kg I.V., AII 0.1 mcg/kg IV, 240 min post dose): 32%
inhibition in vivo at 3 mg/kg (4 h, SHR n=2, 3 mg/kg I.V., AII 0.05 mcg/kg IV, 240 min post dose): 60%
inhibition in vivo at 3 mg/kg (4 h, SHR n=2, 3 mg/kg I.V., AII 0.1 mcg/kg IV, 240 min post dose): 47%
inhibition in vivo at 1 mg/kg (5 h, SHR n=2, 1 mg/kg I.V., AII 0.05 mcg/kg IV, 300 min post dose): 18%
inhibition in vivo at 1 mg/kg (5 h, SHR n=2, 1 mg/kg I.V., AII 0.1 mcg/kg IV, 300 min post dose): 30%
inhibition in vivo at 3 mg/kg (5 h, SHR n=2, 3 mg/kg I.V., AII 0.05 mcg/kg IV, 300 min post dose): 47%
inhibition in vivo at 3 mg/kg (5 h, SHR n=2, 3 mg/kg I.V., AII 0.1 mcg/kg IV, 300 min post dose): 35%
inhibition in vivo at 1 mg/kg ([…], SHR n=2, 1 mg/kg I.V., AII 0.05 mcg/kg IV, 90 min post dose): 40%
inhibition in vivo at 1 mg/kg ([…], SHR n=2, 1 mg/kg I.V., AII 0.1 mcg/kg IV, 90 min post dose): 52%
inhibition in vivo at 3 mg/kg ([…], SHR n=2, 3 mg/kg I.V., AII 0.05 mcg/kg IV, 90 min post dose): 87%
inhibition in vivo at 3 mg/kg ([…], SHR n=2, 3 mg/kg I.V., AII 0.1 mcg/kg IV, 90 min post dose): 76%
inhibition in vivo at 5 mg/kg (0.5 h, SHR n=2, 5 mg/kg P.O., AII 0.05 mcg/kg IV, 30 min post dose): 76%
inhibition in vivo at 5 mg/kg (0.5 h, SHR n=2, 5 mg/kg P.O., AII 0.1 mcg/kg IV, 30 min post dose): 66%
inhibition in vivo at 5 mg/kg (1 h, SHR n=2, 5 mg/kg P.O., AII 0.05 mcg/kg IV, 60 min post dose): 76%
inhibition in vivo at 5 mg/kg (1 h, SHR n=2, 5 mg/kg P.O., AII 0.1 mcg/kg IV, 60 min post dose): 74%
inhibition in vivo at 5 mg/kg (2 h, SHR n=2, 5 mg/kg P.O., AII 0.05 mcg/kg IV, 120 min post dose): 90%
inhibition in vivo at 5 mg/kg (2 h, SHR n=2, 5 mg/kg P.O., AII 0.1 mcg/kg IV, 120 min post dose): 89%
inhibition in vivo at 5 mg/kg (3 h, SHR n=2, 5 mg/kg P.O., AII 0.1 mcg/kg IV, 180 min post dose): 74%
inhibition in vivo at 5 mg/kg (3 h): 82%
inhibition in vivo at 5 mg/kg (4 h, SHR n=2, 5 mg/kg P.O., AII 0.05 mcg/kg IV, 240 min post dose): 94%
inhibition in vivo at 5 mg/kg (4 h, SHR n=2, 5 mg/kg P.O., AII 0.1 mcg/kg IV, 240 min post dose): 79%
inhibition in vivo at 5 mg/kg (5 h, SHR n=2, 5 mg/kg P.O., AII 0.05 mcg/kg IV, 300 min post dose): 93%
inhibition in vivo at 5 mg/kg (5 h, SHR n=2, 5 mg/kg P.O., AII 0.1 mcg/kg IV, 300 min post dose): 79%
inhibition in vivo at 5 mg/kg ([…], SHR n=2, 5 mg/kg P.O., AII 0.05 mcg/kg IV, 90 min post dose): 79%
inhibition in vivo at 5 mg/kg ([…], SHR n=2, 5 mg/kg P.O., AII 0.1 mcg/kg IV, 90 min post dose): 85%
Average Change (SHR n=2, 1 mg/kg I.V., AII 0.05 mcg/kg IV, 30 min post dose): 15 mmHg
Average Change (SHR n=2, 1 mg/kg I.V., AII 0.05 mcg/kg IV, 60 min post dose): 20 mmHg
Average Change (SHR n=2, 1 mg/kg I.V., AII 0.05 mcg/kg IV, 90 min post dose): 26.5 mmHg
Average Change (SHR n=2, 1 mg/kg I.V., AII 0.05 mcg/kg IV, 120 min post dose): 22.5 mmHg
Average Change (SHR n=2, 1 mg/kg I.V., AII 0.05 mcg/kg IV, 180 min post dose): 27.5 mmHg
Average Change (SHR n=2, 1 mg/kg I.V., AII 0.05 mcg/kg IV, 240 min post dose): 32.5 mmHg
Average Change (SHR n=2, 1 mg/kg I.V., AII 0.05 mcg/kg IV, 300 min post dose): 36 mmHg
Average Change (SHR n=2, 1 mg/kg I.V., AII 0.1 mcg/kg IV, 30 min post dose): 25 mmHg
Average Change (SHR n=2, 1 mg/kg I.V., AII 0.1 mcg/kg IV, 60 min post dose): 15 mmHg
Average Change (SHR n=2, 1 mg/kg I.V., AII 0.1 mcg/kg IV, 90 min post dose): 25 mmHg
Average Change (SHR n=2, 1 mg/kg I.V., AII 0.1 mcg/kg IV, 120 min post dose): 36 mmHg
Average Change (SHR n=2, 1 mg/kg I.V., AII 0.1 mcg/kg IV, 180 min post dose): 32.5 mmHg
Average Change (SHR n=2, 1 mg/kg I.V., AII 0.1 mcg/kg IV, 240 min post dose): 35.5 mmHg
Average Change (SHR n=2, 1 mg/kg I.V., AII 0.1 mcg/kg IV, 300 min post dose): 36.5 mmHg
Average Change (SHR n=2, 3 mg/kg I.V., AII 0.05 mcg/kg IV, 30 min post dose): 2.5 mmHg
Average Change (SHR n=2, 3 mg/kg I.V., AII 0.05 mcg/kg IV, 60 min post dose): 0 mmHg
Average Change (SHR n=2, 3 mg/kg I.V., AII 0.05 mcg/kg IV, 90 min post dose): 5 mmHg
Average Change (SHR n=2, 3 mg/kg I.V., AII 0.05 mcg/kg IV, 120 min post dose): 4 mmHg
Average Change (SHR n=2, 3 mg/kg I.V., AII 0.05 mcg/kg IV, 180 min post dose): 15 mmHg
Average Change (SHR n=2, 3 mg/kg I.V., AII 0.05 mcg/kg IV, 240 min post dose): 15 mmHg
Average Change (SHR n=2, 3 mg/kg I.V., AII 0.05 mcg/kg IV, 300 min post dose): 20 mmHg
Average Change (SHR n=2, 3 mg/kg I.V., AII 0.1 mcg/kg IV, 30 min post dose): 2.5 mmHg
Average Change (SHR n=2, 3 mg/kg I.V., AII 0.1 mcg/kg IV, 60 min post dose): 6 mmHg
Average Change (SHR n=2, 3 mg/kg I.V., AII 0.1 mcg/kg IV, 90 min post dose): 10 mmHg
Average Change (SHR n=2, 3 mg/kg I.V., AII 0.1 mcg/kg IV, 120 min post dose): 7.5 mmHg
Average Change (SHR n=2, 3 mg/kg I.V., AII 0.1 mcg/kg IV, 180 min post dose): 22.5 mmHg
Average Change (SHR n=2, 3 mg/kg I.V., AII 0.1 mcg/kg IV, 240 min post dose): 22.5 mmHg
Average Change (SHR n=2, 3 mg/kg I.V., AII 0.1 mcg/kg IV, 300 min post dose): 27.5 mmHg
Average Change (SHR n=2, 5 mg/kg P.O., AII 0.05 mcg/kg IV, 30 min post dose): 10 mmHg
Average Change (SHR n=2, 5 mg/kg P.O., AII 0.05 mcg/kg IV, 60 min post dose): 10 mmHg
Average Change (SHR n=2, 5 mg/kg P.O., AII 0.05 mcg/kg IV, 90 min post dose): 8.5 mmHg
Average Change (SHR n=2, 5 mg/kg P.O., AII 0.05 mcg/kg IV, 120 min post dose): 4 mmHg
Average Change (SHR n=2, 5 mg/kg P.O., AII 0.05 mcg/kg IV, 180 min post dose): 7.5 mmHg
Average Change (SHR n=2, 5 mg/kg P.O., AII 0.05 mcg/kg IV, 240 min post dose): 2.5 mmHg
Average Change (SHR n=2, 5 mg/kg P.O., AII 0.05 mcg/kg IV, 300 min post dose): 3 mmHg
Average Change (SHR n=2, 5 mg/kg P.O., AII 0.1 mcg/kg IV, 30 min post dose): 16 mmHg
Average Change (SHR n=2, 5 mg/kg P.O., AII 0.1 mcg/kg IV, 60 min post dose): 12.5 mmHg
Average Change (SHR n=2, 5 mg/kg P.O., AII 0.1 mcg/kg IV, 90 min post dose): 7 mmHg
Average Change (SHR n=2, 5 mg/kg P.O., AII 0.1 mcg/kg IV, 120 min post dose): 5 mmHg
Average Change (SHR n=2, 5 mg/kg P.O., AII 0.1 mcg/kg IV, 180 min post dose): 12.5 mmHg
Average Change (SHR n=2, 5 mg/kg P.O., AII 0.1 mcg/kg IV, 240 min post dose): 10 mmHg
Average Change (SHR n=2, 5 mg/kg P.O., AII 0.1 mcg/kg IV, 300 min post dose): 10 mmHg
Change (1 mg/kg I.V., AII 0.05 mcg/kg IV, 30 min post dose): 15 mmHg
Change (1 mg/kg I.V., AII 0.05 mcg/kg IV, 60 min post dose): 20 mmHg
Change (1 mg/kg I.V., AII 0.1 mcg/kg IV, 30 min post dose): 25 mmHg
Change (1 mg/kg I.V., AII 0.1 mcg/kg IV, 60 min post dose): 15 mmHg
Change (3 mg/kg I.V., AII 0.05 mcg/kg IV, 60 min post dose): 0 mmHg
Change (3 mg/kg I.V., AII 0.05 mcg/kg IV, 90 min post dose): 5 mmHg
Change (3 mg/kg I.V., AII 0.05 mcg/kg IV, 180 min post dose): 15 mmHg
Change (3 mg/kg I.V., AII 0.05 mcg/kg IV, 240 min post dose): 15 mmHg
Change (5 mg/kg P.O., AII 0.1 mcg/kg IV, 240 min post dose): 10 mmHg
Change (5 mg/kg P.O., AII 0.1 mcg/kg IV, 300 min post dose): 10 mmHg

From patent US5294611A, “Angiotensin II receptor blocking 2,3,6 substituted quinazolinones” (American Cyanamid Company, priority 1993, dated 1994)
